# Reference: ChEMBL document CHEMBL1158470, “9-(Arenethenyl)purines as dual Src/Abl kinase inhibitors targeting the inactive conformation: design, synthesis, and biological evaluation” (J Med Chem, 2009)
# Active and inactive are the calls of the source. No cut-off for these calls is given here.
# Tests used:
# [1] = Antiproliferative activity against mouse BA/F3 cells expressing wild type Bcr-Abl after 3 days by MTS assay
# [2] = target: Proto-oncogene tyrosine-protein kinase Src (Homo sapiens, UniProt P12931)
# Description: Inhibition of human Src kinase by TR-FRET assay
# [3] = Antiproliferative activity against mouse BA/F3 cells after 3 days by MTS assay
# K562 = assay: Antiproliferative activity against human K562 cells after 3 days by MTS assay
# [4] = target: Tyrosine-protein kinase ABL1 (Homo sapiens, UniProt P00519)
# Description: Inhibition of wild type human Abl kinase by TR-FRET assay
# [5] = Antiproliferative activity against mouse BA/F3 cells expressing Bcr-Abl T315I mutant after 3 days by MTS assay; details: BaF3, 72 h
# [6] = Half life in CD rat at 5 mg/kg, iv; format: ADME, organism-based; design: dose 5 mg/kg, route intravenous; details: in vivo
# [7] = Clearance in CD rat at 5 mg/kg, iv; format: ADME, organism-based; design: dose 5 mg/kg, route intravenous; details: in vivo
# [8] = Volume of distribution in CD rat at 5 mg/kg, iv; format: ADME, organism-based; design: dose 5 mg/kg, route intravenous; details: in vivo
# [9] = Tmax in CD rat at 15 mg/kg, po; format: ADME, organism-based; design: dose 15 mg/kg, route oral; details: in vivo
# [10] = Cmax in CD rat at 15 mg/kg, po; format: ADME, organism-based; design: dose 15 mg/kg, route oral; details: in vivo
# [11] = AUC (0 to 24 hrs) in mouse at 10 mg/kg, po; format: ADME, organism-based; design: time < 24 hr, dose 10 mg/kg, route oral; details: plasma
# [12] = Antitumor activity against mouse BA/F3 cells expressing wild type Bcr-Abl xenografted in CB17 SCID mouse assessed as increase in mouse survival at 10 mg/kg, po administered on day 3 once daily for 19 days; format: functional; details: BaF3
# [13] = Tmax in mouse at 10 mg/kg, po; format: ADME, organism-based; design: dose 10 mg/kg, route oral; details: in vivo
# NIH3T3 [14] = assay: Antitumor activity against in po dosed mouse NIH/3T3 cells expressing Src Y527F mutant xenografted in CD1 nude mouse assessed as tumor shrinkage administered daily for 21 days; format: functional, organism-based
# [15] = Cmax in mouse at 10 mg/kg, po; format: ADME, organism-based; design: dose 10 mg/kg, route oral; details: in vivo
# [16] = Oral bioavailability in mouse at 10 mg/kg; format: ADME, organism-based; details: in vivo
# NIH3T3 [17] = assay: Antitumor activity against in mouse NIH/3T3 cells expressing Src Y527F mutant xenografted in CD1 nude mouse assessed as complete tumor regression at 100 mg/kg, po administered daily for 21 days; format: functional, organism-based; design: dose 100 mg/kg
# [18] = Antitumor activity against mouse BA/F3 cells expressing wild type Bcr-Abl xenografted in CB17 SCID mouse assessed as median survival time at 10 mg/kg, po administered on day 3 once daily for 19 days; format: functional, BaF3
# [19] = Oral bioavailability in CD rat at 15 mg/kg; format: ADME, organism-based; details: in vivo
# [20] = AUC (0 to 24 hrs) in CD rat at 15 mg/kg, po; format: ADME, organism-based; design: time < 24 hr, dose 15 mg/kg, route oral; details: plasma
# BaF3 [21] = assay: Antitumor activity against mouse BA/F3 cells expressing wild type Bcr-Abl xenografted in CB17 SCID mouse assessed as increase in mouse survival at 75 mg/kg, po administered on day 3 once daily for 19 days relative to control; format: functional, organism-based; design: dose 75 mg/kg
# BaF3 [22] = assay: Antitumor activity against mouse BA/F3 cells expressing wild type Bcr-Abl xenografted in CB17 SCID mouse assessed as median survival time at 75 mg/kg, po administered on day 3 once daily for 19 days relative to control; format: functional, organism-based; design: dose 75 mg/kg
# [23] = Antiproliferative activity against mouse BA/F3 cells expressing Bcr-Abl Y253H mutant after 3 days by MTS assay; details: BaF3, 72 h
# [24] = Antiproliferative activity against mouse BA/F3 cells expressing Bcr-Abl Q252H mutant after 3 days by MTS assay; details: BaF3, 72 h
# [25] = Antiproliferative activity against mouse BA/F3 cells expressing Bcr-Abl G250E mutant after 3 days by MTS assay; details: BaF3, 72 h
# [26] = Antiproliferative activity against mouse BA/F3 cells expressing Bcr-Abl E255K mutant after 3 days by MTS assay; details: BaF3, 72 h
# [27] = Antiproliferative activity against mouse BA/F3 cells expressing Bcr-Abl L248R mutant after 3 days by MTS assay; details: BaF3, 72 h
# Chain of Tyrosine-protein kinase ABL1 (P00519 whole entry): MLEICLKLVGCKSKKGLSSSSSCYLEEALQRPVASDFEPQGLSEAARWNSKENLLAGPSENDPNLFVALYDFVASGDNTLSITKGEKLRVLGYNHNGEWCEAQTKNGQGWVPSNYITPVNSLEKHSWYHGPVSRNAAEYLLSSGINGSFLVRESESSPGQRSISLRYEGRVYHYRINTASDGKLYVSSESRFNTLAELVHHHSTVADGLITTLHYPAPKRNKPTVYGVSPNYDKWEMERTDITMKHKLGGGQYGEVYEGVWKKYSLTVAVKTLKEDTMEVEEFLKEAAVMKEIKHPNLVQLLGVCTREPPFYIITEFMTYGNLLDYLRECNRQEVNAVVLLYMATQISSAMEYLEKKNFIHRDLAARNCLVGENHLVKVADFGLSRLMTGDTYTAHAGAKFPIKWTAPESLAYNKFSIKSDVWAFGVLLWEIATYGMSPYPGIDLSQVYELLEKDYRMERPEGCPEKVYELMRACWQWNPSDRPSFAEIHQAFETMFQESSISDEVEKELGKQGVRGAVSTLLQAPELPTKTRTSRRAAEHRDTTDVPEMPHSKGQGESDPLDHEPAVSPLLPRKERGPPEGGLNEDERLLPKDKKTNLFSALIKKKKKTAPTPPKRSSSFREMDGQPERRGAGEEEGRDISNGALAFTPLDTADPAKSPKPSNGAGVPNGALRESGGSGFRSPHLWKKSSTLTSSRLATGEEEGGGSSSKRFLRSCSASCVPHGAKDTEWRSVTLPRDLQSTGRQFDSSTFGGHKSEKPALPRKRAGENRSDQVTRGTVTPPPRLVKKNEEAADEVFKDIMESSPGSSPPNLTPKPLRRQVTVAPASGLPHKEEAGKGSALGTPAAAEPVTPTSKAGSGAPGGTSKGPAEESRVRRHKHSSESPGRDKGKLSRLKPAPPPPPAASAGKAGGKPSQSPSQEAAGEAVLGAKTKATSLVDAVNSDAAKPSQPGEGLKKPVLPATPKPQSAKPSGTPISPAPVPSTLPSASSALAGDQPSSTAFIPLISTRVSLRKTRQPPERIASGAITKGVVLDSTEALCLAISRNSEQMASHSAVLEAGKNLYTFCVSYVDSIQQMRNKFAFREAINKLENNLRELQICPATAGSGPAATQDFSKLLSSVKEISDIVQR
# Chain of Proto-oncogene tyrosine-protein kinase Src (P12931 2-536 limits assumed): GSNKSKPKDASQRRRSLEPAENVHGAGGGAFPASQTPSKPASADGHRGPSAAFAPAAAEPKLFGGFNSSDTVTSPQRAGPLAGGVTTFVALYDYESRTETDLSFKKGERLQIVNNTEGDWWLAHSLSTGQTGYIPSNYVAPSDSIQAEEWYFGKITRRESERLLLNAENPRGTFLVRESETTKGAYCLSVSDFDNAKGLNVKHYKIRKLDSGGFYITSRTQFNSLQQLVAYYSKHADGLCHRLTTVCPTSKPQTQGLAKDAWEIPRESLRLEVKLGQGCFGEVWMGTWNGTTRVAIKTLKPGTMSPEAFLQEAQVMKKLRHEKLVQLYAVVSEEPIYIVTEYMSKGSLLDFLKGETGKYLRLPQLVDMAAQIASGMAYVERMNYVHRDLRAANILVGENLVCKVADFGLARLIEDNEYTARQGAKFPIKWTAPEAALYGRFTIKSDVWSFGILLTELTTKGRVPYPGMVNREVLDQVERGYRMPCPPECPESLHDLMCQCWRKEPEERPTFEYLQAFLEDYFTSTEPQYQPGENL
Structure (SMILES),"IC50 ([3]; Mus musculus, BaF3, 72 h)","IC50 (K562; Homo sapiens, K562, 72 h)",half-life [6],clearance [7],Vd [8],Tmax [9],Cmax [10],other results
Cc1cn(-c2cc(NC(=O)c3ccc(C)c(/C=C/n4cnc5cncnc54)c3)cc(C(F)(F)F)c2)cn1,,,,,,,,"IC50 ([1]; Mus musculus, BaF3, 72 h): 7 nM"
Cc1ccc(NC(=O)c2cccc(C(F)(F)F)c2)cc1/C=C/n1cnc2c(Nc3ccccn3)ncnc21,6260 nM,181 nM,,,,,,IC50 [2]: 201 nM; IC50 [4]: 243 nM
Cc1ccc(NC(=O)Nc2cccc(C(F)(F)F)c2)cc1/C=C/n1cnc2c(NC3CC3)ncnc21,,> 1000 nM,,,,,,IC50 [2]: 517 nM
Cc1ccc(C(=O)Nc2cc(-n3ccnc3)cc(C(F)(F)F)c2)cc1/C=C/n1cnc2c(NC3CC3)ncnc21,7120 nM,5.4 nM,,,,,,IC50 [5]: 298 nM
Cc1ccc(NC(=O)c2cccc(C(F)(F)F)c2)cc1/C=C/n1cnc2c(Nc3ccncc3)ncnc21,635 nM,3.7 nM,6.7 h,16 mL/min/kg,9.01 L/kg,6 h,483 ng/mL,
Cc1ccc(C(=O)Nc2cc(C(F)(F)F)ccn2)cc1/C=C/n1cnc2c(NC3CC3)ncnc21,4890 nM,6.1 nM,5.7 h,0.667 mL/min/kg,0.34 L/kg,2 h,23500 ng/mL,AUC(0-t) at 24 h [11]: 21200 ng·h/mL; survival at 10 mg/kg [12]: 75%; Tmax [13]: 2 h; IC50 [5]: 2750 nM; Activity (NIH3T3 [14]): Dose-dependent effect; Cmax [15]: 3100 ng/mL; bioavailability [16]: 100%; Activity (NIH3T3 [17]): Active; MST [18]: 35 days; bioavailability [19]: 116%; AUC(0-t) at 24 h [20]: 428000 ng·h/mL
Cc1ccc(C(=O)Nc2cccc(C(C)C)c2)cc1/C=C/n1cnc2c(NC3CC3)ncnc21,8320 nM,63 nM,,,,,,
Cc1ccc(C(=O)Nc2cc(C(C)(C)C)nn2C)cc1/C=C/n1cnc2c(NC3CC3)ncnc21,9030 nM,35 nM,,,,,,IC50 [4]: 146 nM
CNc1ncnc2c1ncn2/C=C/c1cc(NC(=O)c2cccc(C(F)(F)F)c2)ccc1C,> 10000 nM,67 nM,2.95 h,6.33 mL/min/kg,1.6 L/kg,,,
Cc1ccc(C(=O)Nc2cccc(C(C)(C)C)c2)cc1/C=C/n1cnc2c(NC3CC3)ncnc21,2550 nM,22 nM,2.1 h,29.8 mL/min/kg,5.31 L/kg,1 h,100 ng/mL,bioavailability [19]: 3.5%; AUC(0-t) at 24 h [20]: 297 ng·h/mL
Cc1ccc(C(=O)Nc2cc(C(C)(C)C)on2)cc1/C=C/n1cnc2c(NC3CC3)ncnc21,> 10000 nM,15 nM,3.7 h,15 mL/min/kg,4.87 L/kg,1 h,1040 ng/mL,bioavailability [19]: 45%; AUC(0-t) at 24 h [20]: 7540 ng·h/mL
CNc1ncnc2c1ncn2CCc1cc(NC(=O)c2cccc(C(F)(F)F)c2)ccc1C,9680 nM,,,,,,,IC50 [2]: 300 nM; IC50 (K562; k562): Not Active
Cc1ccc(C(=O)Nc2cc(C(F)(F)F)ccn2)cc1/C=C/n1cnc2cncnc21,,,,,,,,"IC50 ([1]; Mus musculus, BaF3, 72 h): 5 nM"
Cc1cn(-c2cc(NC(=O)c3ccc(C)c(Nc4nccc(-c5cccnc5)n4)c3)cc(C(F)(F)F)c2)cn1,,,,,,,,Activity (BaF3 [21]): Active; Activity (BaF3 [22]): Active
Cc1ccc(C(=O)Nc2cc(N3CCN(C)CC3)cc(C(F)(F)F)c2)cc1/C=C/n1cnc2c(NC3CC3)ncnc21,543 nM,14 nM,,,,,,
Cc1ccc(C(=O)Nc2cccc(C(F)(F)F)c2)cc1/C=C/n1cnc2c(NC3CC3)ncnc21,4350 nM,17 nM,,,,,,
Cc1cn(-c2cc(NC(=O)c3ccc(C)c(/C=C/n4cnc5c(NC6CC6)ncnc54)c3)cc(C(F)(F)F)c2)cn1,6460 nM,4.3 nM,8.3 h,1 mL/min/kg,0.78 L/kg,2 h,1750 ng/mL,AUC(0-t) at 24 h [11]: 6930 ng·h/mL; IC50 [23]: 44 nM; IC50 [24]: 42 nM; Tmax [13]: 1 h; IC50 [5]: 422 nM; IC50 [25]: 63 nM; Cmax [15]: 1020 ng/mL; IC50 [26]: 24 nM; IC50 [27]: 64 nM; bioavailability [19]: 7%; AUC(0-t) at 24 h [20]: 17200 ng·h/mL
Cc1ccc(C(=O)Nc2cc(C(F)(F)F)ccc2F)cc1/C=C/n1cnc2c(NC3CC3)ncnc21,7660 nM,68 nM,,,,,,IC50 [4]: 236 nM
Cc1ccc(NC(=O)c2cccc(C(F)(F)F)c2)cc1/C=C/n1cnc2c(Nc3ccc(P(C)(C)=O)cc3)ncnc21,7600 nM,0.95 nM,3.1 h,13.2 mL/min/kg,3.54 L/kg,1 h,63 ng/mL,bioavailability [19]: 0.8%; AUC(0-t) at 24 h [20]: 146 ng·h/mL
Cc1ccc(NC(=O)c2cccc(C(F)(F)F)c2)cc1/C=C/n1cnc2c(Nc3cccnc3)ncnc21,> 10000 nM,2.7 nM,2.4 h,8.17 mL/min/kg,1.7 L/kg,2 h,387 ng/mL,IC50 ([1]; baf3): Not Active; bioavailability [19]: 11%; AUC(0-t) at 24 h [20]: 3310 ng·h/mL
Cc1ccc(C(=O)Nc2ncc(C(C)(C)C)s2)cc1/C=C/n1cnc2c(NC3CC3)ncnc21,7120 nM,292 nM,,,,,,IC50 [2]: 310 nM; IC50 [4]: 267 nM
Cc1ccc(NC(=O)c2cccc(C(F)(F)F)c2)cc1/C=C/n1cnc2c(NCCCN(C)C)ncnc21,,,,,,,,IC50 [2]: 159 nM; IC50 ([3]; baf3): Not Active; IC50 (K562; k562): Not Active; IC50 ([1]; baf3): Not Active; IC50 [4]: 157 nM
Cc1ccc(C(=O)Nc2cc(N3CCOCC3)cc(C(F)(F)F)c2)cc1/C=C/n1cnc2c(NC3CC3)ncnc21,2520 nM,17 nM,,,,,,
Cc1ccc(NC(=O)c2cccc(C(F)(F)F)c2)cc1/C=C/n1cnc2c(Nc3ccncn3)ncnc21,2070 nM,62 nM,,,,,,
Cc1ccc(C(=O)Nc2ccc(Cl)c(C(F)(F)F)c2)cc1/C=C/n1cnc2c(NC3CC3)ncnc21,2410 nM,69 nM,,,,,,
Cc1ccc(NC(=O)c2cccc(C(F)(F)F)c2)cc1/C=C/n1cnc2c(NC3CC3)ncnc21,7860 nM,95 nM,4 h,3.17 mL/min/kg,1.08 L/kg,1 h,2610 ng/mL,bioavailability [19]: 40%; AUC(0-t) at 24 h [20]: 32200 ng·h/mL
